Take `CNc1nc(-c2cccc(NC(=O)c3ccccc3)c2)c2cc(OC)c(OC)cc2n1` [Example 1, 4-(3-Benzoylaminophenyl)-6,7-dimethoxy-2-methylaminoquinazoline]: the melting point was in the range of 201 to 203 °C. In turn, `CNc1nc(-c2cccc(NC(=O)c3ccccn3)c2)c2cc(OC)c(OC)cc2n1` [Example 3, 6,7-Dimethoxy-2-methylamino-4-[3-(2-pyridinecarbonylamino)phenyl]quinazoline] gave a melting point of 175 to 177 °C. `CNc1nc(-c2cccc(NC(=O)c3cccnc3)c2)c2cc(OC)c(OC)cc2n1` [Example 4, 6,7-Dimethoxy-2-methylamino-4-[3-(3-pyridinecarbonylamino)phenyl]quinazoline] gave a melting point of 251 to 253 °C. `CNc1nc(-c2cccc(NC(=O)c3ccc4c(c3)OCO4)c2)c2cc(OC)c(OC)cc2n1` [Example 5, 6,7-Dimethoxy-2-methylamino-4-[3-(3,4-methylenedioxybenzoylamino)phenyl]quinazoline] displayed a melting point of 205 to 207 °C. In the case of `CNc1nc(-c2cccc(NC(=O)Cc3ccccc3)c2)c2cc(OC)c(OC)cc2n1` [Example 6, 6,7-Dimethoxy-2-methylamino 4-[3-(phenylacetylamino)phenyl]quinazoline] it was 175 to 177 °C; in that of `CNc1nc(-c2cccc(NC(=O)CCc3ccccc3)c2)c2cc(OC)c(OC)cc2n1` [Example 7, 6,7-Dimethoxy-2-methylamino-4-[3-(3-phenylpropanoylamino)phenyl]quinazoline], 180 to 182 °C; in that of `CNc1nc(-c2cccc(NC(=O)c3ccccc3Cl)c2)c2cc(OC)c(OC)cc2n1` [Example 8, 4-[3-(2-Chlorobenzoylamino)phenyl]-6,7-dimethoxy-2-methylaminoquinazoline], 197 to 199 °C.

On to `CNc1nc(-c2cccc(NC(=O)c3cccc(Cl)c3)c2)c2cc(OC)c(OC)cc2n1` [Example 9, 4-[3-(3-Chlorobenzoylamino)phenyl]-6,7-dimethoxy-2-methylaminoquinazoline], for which the melting point lay in the range of 124 to 126 °C. `CNc1nc(-c2cccc(NC(=O)c3ccc(Cl)cc3)c2)c2cc(OC)c(OC)cc2n1` [Example 10, 4-[3-(4-Chlorobenzoylamino)phenyl]-6,7-dimethoxy-2-methylaminoquinazoline] yielded a melting point of 193 to 195 °C. As for `CNc1nc(-c2cccc(NC(=O)c3ccccc3OC)c2)c2cc(OC)c(OC)cc2n1` [Example 11, 6,7-Dimethoxy-4-[3-(2-methoxybenzoylamino)phenyl]-2-methylaminoquinazoline], the melting point was in the range of 194 to 196 °C. On to `CNc1nc(-c2cccc(NC(=O)c3cccc(OC)c3)c2)c2cc(OC)c(OC)cc2n1` [Example 12, 6,7-Dimethoxy-4-[3-(3-methoxybenzoylamino)phenyl]-2-methylaminoquinazoline], for which the melting point is 193 to 195 °C. The molecule `CNc1nc(-c2cccc(NC(=O)c3ccc(OC)cc3)c2)c2cc(OC)c(OC)cc2n1` [Example 13, 6,7-Dimethoxy-4-[3-(4-methoxybenzoylamino)phenyl]-2-methylaminoquinazoline] had a melting point of 219 to 221 °C. In turn, `CNc1nc(-c2cccc(NC(=O)c3ccc(Cl)c(Cl)c3)c2)c2cc(OC)c(OC)cc2n1` [Example 15, 4-[3-(3,4-Dichlorobenzoylamino)phenyl]-6,7-dimethoxy-2-methylaminoquinazoline] had a melting point of 134 to 136 °C. As for `CNc1nc(-c2cccc(NC(=O)C3CC3)c2)c2cc(OC)c(OC)cc2n1` [Example 16, 4-(3-Cyclopropanoylaminophenyl)-6,7-dimethoxy-2-methylaminoquinazoline], the figure is 205 to 207 °C; as for `CNc1nc(-c2cccc(NC(=O)c3cc(OC)c(OC)c(OC)c3)c2)c2cc(OC)c(OC)cc2n1` [Example 19, 6,7-Dimethoxy-4-methylamino-4-[3-(3,4,5-trimethoxybenzoylamino)phenyl]quinazoline], 122 to 124 °C. As for `CNc1nc(-c2cccc(NC(=O)c3ccc(OCc4ccccc4)cc3)c2)c2cc(OC)c(OC)cc2n1` [Example 20, 4-[3-(4-Benzyloxybenzoylamino)phenyl]-6,7-dimethoxy-2-methylaminoquinazoline], the figure is 110 to 112 °C.

Turning to `CNc1nc(-c2cccc(NC(=O)c3cccc(OCc4ccccc4)c3)c2)c2cc(OC)c(OC)cc2n1` [Example 22, 4-[3-(3-Benzyloxybenzoylamino)phenyl]-6,7-dimethoxy-2-methylaminoquinazoline], the melting point is 110 to 112 °C. As for `CNc1nc(-c2cccc(NC(=O)c3cccc(O)c3)c2)c2cc(OC)c(OC)cc2n1` [Example 23, 6,7-Dimethoxy-4-[-(3-hydroxybenzoylamino)phenyl]-2-methylaminoquinazoline], the figure is 265 to 267 °C; as for `CNc1nc(-c2cccc(NC(=O)c3ccccc3OCc3ccccc3)c2)c2cc(OC)c(OC)cc2n1` [Example 24, 4-[3-(2-Benzyloxybenzoylamino)phenyl]-6,7-dimethoxy-2-methylaminoquinazoline], 192 to 194 °C.

`CNc1nc(-c2cccc(NC(=O)c3ccccc3O)c2)c2cc(OC)c(OC)cc2n1` [Example 25, 6,7-Dimethoxy-4-[3-(2-hydroxybenzoylamino)phenyl]-2-methylaminoquinazoline] had a melting point of 212 to 214 °C. `CNc1nc(-c2cccc(NC(=O)c3ccc(SC)cc3)c2)c2cc(OC)c(OC)cc2n1` [Example 26, 6,7-Dimethoxy-2-methylamino-4-[3-(4-methylthiobenzoylamino)phenyl]quinazoline]: the melting point lay within 209 to 211 °C. The molecule `CNc1nc(-c2cccc(NC(=O)c3ccc([S+](C)[O-])cc3)c2)c2cc(OC)c(OC)cc2n1` (stereo not drawn) [Example 27, 6,7-Dimethoxy-2-methylamino-4-[3-(4-methylsulfinylbenzoylamino)phenyl]quinazoline] showed a melting point of 246 to 248 °C. In the case of `CNc1nc(-c2cccc(NC(=O)c3ccc(S(C)(=O)=O)cc3)c2)c2cc(OC)c(OC)cc2n1` [Example 28, 6,7-Dimethoxy-2-methylamino-4-[3-(4-methylsulfonylbenzoylamino)phenyl]quinazoline] it was 277 to 279 °C; in that of `CNc1nc(-c2cccc(NC(=O)c3ccc(Cl)nc3)c2)c2cc(OC)c(OC)cc2n1` [Example 29, 4-[3-(6-Choloronicotinoylamino)phenyl]-6,7-dimethoxy-2-methylaminoquinazoline], 157 to 159 °C; in that of `CNc1nc(-c2cccc(NC(=O)c3ccnc(Cl)c3)c2)c2cc(OC)c(OC)cc2n1` [Example 33, 4-[3-(2-Chloroisonicotinoylamino)phenyl]-6,7-dimethoxy-2-methylaminoquinazoline], 151 to 153 °C.

Take `CNc1nc(-c2cccc(NS(=O)(=O)c3ccccc3)c2)c2cc(OC)c(OC)cc2n1` [Example 35, 4-(3-Benzenesulfonamidephenyl)-6,7-dimethoxy-2-methylaminoquinazoline]: the melting point was in the range of 230 to 232 °C. Molecule `CNc1nc(-c2cccc(NC(=O)Nc3ccccc3)c2)c2cc(OC)c(OC)cc2n1` [Example 36, 6,7-Dimethoxy-2-methylamino-4-[3-(3-phenylureido)phenyl]quinazoline] displayed a melting point of 218 to 220 °C. For `CNc1nc(-c2cccc(N3C(=O)c4ccccc4C3=O)c2)c2cc(OC)c(OC)cc2n1` [Example 37, 6,7-Dimethoxy-2-methylamino-4-(3-phthalimidephenyl) quinazoline], the melting point lay in the range of 280 to 282 °C. `CNc1nc(-c2cccc(NCc3ccccc3)c2)c2cc(OC)c(OC)cc2n1` [Example 38] displayed a melting point of 146 to 148 °C. For the molecule `CCCN(Cc1ccccc1)c1cccc(-c2nc(NC)nc3cc(OC)c(OC)cc23)c1` [Example 41, 4-[3-(N-benzyl-N-propylamino)phenyl]-6,7-dimethoxy-2-methylaminoquinazoline], the melting point was in the range of 75 to 77 °C.

`CNc1nc(-c2cccc(N(C)C(=O)c3ccccc3)c2)c2cc(OC)c(OC)cc2n1` [Example 42, 4-[3-(N-benzoyl-N-methylamino)phenyl]-6,7-dimethoxy-2-methylaminoquinazoline] registered a melting point of 198 to 200 °C. As for `CNc1nc(-c2cccc(-n3cccc3)c2)c2cc(OC)c(OC)cc2n1` [Example 43, 6,7-Dimethoxy-2-methylamino-4-[3-(1-pyrrolyl)phenyl]quinazoline], the melting point lay in the range of 199 to 201 °C. In the case of `CNc1nc(-c2cccc(-c3ccccc3)c2)c2cc(OC)c(OC)cc2n1` [Example 46, 4-(3-Biphenylyl)-6,7-dimethoxy-2-methylaminoquinazoline] it was 183 to 185 °C. Turning to `CNc1nc(-c2cccc(-c3cccnc3)c2)c2cc(OC)c(OC)cc2n1` [Example 47, 6,7-Dimethoxy-2-methylamino-4-[3-(3-pyridyl)phenyl]quinazoline], the melting point was in the range of 186 to 188 °C. The molecule `CNc1nc(-c2cccc(-c3ccc(C)c(C)c3)c2)c2cc(OC)c(OC)cc2n1` [Example 48, 6,7-Dimethoxy-4-(3′,4′-dimethyl-3-biphenylyl)-2-methylaminoquinazoline] had a melting point of 149 to 151 °C. Molecule `CNc1nc(-c2cccc(-c3ccc4nccn4c3)c2)c2cc(OC)c(OC)cc2n1` [Example 50, 6,7-Dimethoxy-4-[3-(imidazo[1.2-a]pyridine-6-yl)phenyl]-2-methylaminoquinazoline] yielded a melting point of 237 to 239 °C. As for `CNc1nc(-c2cccc(-c3cccc([S+](C)[O-])c3)c2)c2cc(OC)c(OC)cc2n1` (stereo not drawn) [Example 55, 6,7-Dimethoxy-2-methylamino-4-(3-methylsulfinyl-3-biphenylyl)quinazoline], the figure is 163 to 165 °C.

The molecule `CNc1nc(-c2cccc(-c3cncc(OC)c3)c2)c2cc(OC)c(OC)cc2n1` [Example 57, 6,7-Dimethoxy-4-[3-(5-methoxy-3-pyridyl)phenyl]-2-methylaminoquinazoline] registered a melting point of 225 to 227 °C. In the case of `CNc1nc(-c2cccc(-c3cncc([S+](C)[O-])c3)c2)c2cc(OC)c(OC)cc2n1` (stereo not drawn) [Example 59, 6,7-Dimethoxy-2-methylamino-4-[3-(5-methylsulfinyl-3-pyridyl)phenyl]quinazoline], the melting point fell in the range of 208 to 210 °C.

The melting point is the temperature of the solid-liquid transition.

(Values after patent US6352989B1, “Nitrogenous heterocyclic derivatives and medicine thereof” (Eisai Co., Ltd., priority 1998, dated 2002).)
